Assay results: patent US8431365B2, “β1,3-N-acetyl-D-galactosamine transferase protein, nucleic acid encoding the same and method of examining canceration using the same” (National Institute of Advanced Industrial Science and …, priority 2003, dated 2013)

Assays:
Type in all cases: biochemical
[1] = target: T1, mouse G34 (Mus musculus, UniProt Q8BG28); test: Substrate specificity of β1,3-N-acetylgalactosamine transferase activity of mouse G34; conditions: for % (radioactivity relative to Bz-β-GlcNAc set to 100%): 10 nmol substrate, HEPES pH 7.4, MnCl2 10 mM, 37° C. 16 hours
T1 construct: made in house; host or cells: 293T cells transfected with pFLAG-CMV3-mG34A; purified from the supernatant
T1 sequence (Q8BG28 35-504): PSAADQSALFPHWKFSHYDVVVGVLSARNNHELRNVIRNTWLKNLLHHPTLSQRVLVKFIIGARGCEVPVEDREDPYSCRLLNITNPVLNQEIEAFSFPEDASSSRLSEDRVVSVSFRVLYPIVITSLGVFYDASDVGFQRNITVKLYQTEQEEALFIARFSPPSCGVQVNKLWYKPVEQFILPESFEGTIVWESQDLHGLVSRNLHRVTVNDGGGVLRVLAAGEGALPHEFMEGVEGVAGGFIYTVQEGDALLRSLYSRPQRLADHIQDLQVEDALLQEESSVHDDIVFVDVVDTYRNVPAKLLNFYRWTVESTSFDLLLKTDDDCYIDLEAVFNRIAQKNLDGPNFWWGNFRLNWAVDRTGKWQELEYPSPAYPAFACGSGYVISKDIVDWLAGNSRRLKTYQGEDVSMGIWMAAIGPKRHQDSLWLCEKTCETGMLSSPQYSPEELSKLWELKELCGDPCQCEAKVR
Description: The following reaction system was used for examining mouse G34 for its substrate specificity in its β1,3-N-acetylgalactosamine transferase activity. In the reaction solutions shown below, each of the following was used at […] as an “acceptor substrate”: pNp-α-Gal, oNp-β-Gal, Bz-α-GlcNAc, Bz-β-GlcNAc, Bz-α-GalNAc, pNp-β-GalNAc, pNp-α-Glc, pNp-β-Glc, pNp-β-GlcA, pNp-α-Fuc, pNp-α-Xyl, pNp-β-Xyl, pNp-α-Man, lactoside-Bz, Lac-ceramide, Gal-ceramide, Gb3, globoside, Gal-β1-4GalNAc-α-pNp, Galβ1-3GlcNAc-β-Bz, GlcNAc-β1-4-GlcNAc-β-Bz, core1-pNp, core2-pNp, core3-pNp and core6-pNp (all purchased from SIGMA).
Each reaction solution was prepared as follows (final concentrations in parentheses): each substrate (10 nmol), HEPES (N-[2-hydroxyethyl]piperazine-N′-[2-ethanesulfonic acid]) (pH 7.4, 14 mM), MnCl2 (10 mM), Triton CF-54 (trade name) (0.3%), UDP-GalNAc (2 mM) and […] (40 nCi) were mixed and supplemented with 5 μl mouse G34 enzyme solution, followed by dilution with H2O to a total volume of 20 μl.
(§1) The above reaction mixtures were each reacted at 37° C. for 16 hours. After completion of the reaction, 200 μl H2O was added and each mixture was lightly centrifuged to obtain the supernatant. The supernatant was passed through a Sep-Pak plus C18 Cartridge (Waters), which had been washed once with 1 ml methanol and twice with 1 ml H2O and then equilibrated, to allow the substrate and product in the supernatant to adsorb to the cartridge. After washing the cartridge twice with 1 ml H2O, the adsorbed substrate and product were eluted with 1 ml methanol. The eluate was mixed with 5 ml liquid scintillator ACSII (Amersham Biosciences) and measured for the amount of radiation with a scintillation counter (Beckman Coulter).
The results thus measured were compared assuming that the radioactivity obtained using Bz-β-GlcNAc as a substrate was set to 100% (Table 11).

[2] = target: T2, human G34 protein (Homo sapiens, UniProt Q8NCR0); test: Acceptor substrate specificity to oligosaccharides; conditions: for % (radioactivity relative to Bz-β-GlcNAc set to 100%): 50 nmol substrate, HEPES pH 7.4, MnCl2 10 mM, 37° C. 2 hours
T2 construct: made in house; host or cells: Sf21 insect cells (baculovirus, pFBIF-G34A)
T2 sequence (Q8NCR0 36-500): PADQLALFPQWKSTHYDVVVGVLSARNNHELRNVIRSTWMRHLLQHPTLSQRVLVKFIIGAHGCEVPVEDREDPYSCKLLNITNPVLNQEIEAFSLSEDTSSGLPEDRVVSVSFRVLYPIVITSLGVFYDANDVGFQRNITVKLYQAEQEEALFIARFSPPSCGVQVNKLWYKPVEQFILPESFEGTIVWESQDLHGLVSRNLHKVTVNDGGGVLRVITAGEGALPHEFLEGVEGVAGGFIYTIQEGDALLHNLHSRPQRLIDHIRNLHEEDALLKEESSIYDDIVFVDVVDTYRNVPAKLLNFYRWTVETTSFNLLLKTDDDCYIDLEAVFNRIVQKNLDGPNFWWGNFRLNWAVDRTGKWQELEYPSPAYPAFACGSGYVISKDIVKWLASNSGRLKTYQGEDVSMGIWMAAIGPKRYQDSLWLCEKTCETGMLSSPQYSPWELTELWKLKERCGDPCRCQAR
Description: The following reaction system was used for examining the acceptor substrate specificity to oligosaccharides. The acceptor substrates used were pNp-α-Gal, oNp-β-Gal, Bz-α-GlcNAc, Bz-β-GlcNAc, Bz-α-GalNAc, pNp-β-GalNAc, pNp-α-Glc, pNp-β-Glc, pNp-β-GlcA, pNp-α-Fuc, pNp-α-Xyl, pNp-β-Xyl, pNp-α-Man, lactoside-Bz, Lac-ceramide, Gal-ceramide, paragloboside, globoside, Gal-β1-4 GalNAc-α-pNp, Gal-β1-3 GlcNAc-β-pNp, GlcNAc-[…] GlcNAc β-Bz, pNp-core1 (Gal-β1-3 GalNAc-α-pNp), pNp-core2 (Gal-β1-3 (GlcNAc-β1-6) GalNAc-α-pNp), pNp-core3 (GlcNAc-β1-3 GalNAc-α-pNp) and pNp-core6 (GlcNAc-β1-6 GalNAc-α-pNp). “Lac” represents a D-lactose residue.
Each reaction solution (final concentrations in parentheses) was prepared by adding each substrate (50 nmol), HEPES buffer (pH 7.4, 14 mM), Triton CF-54 (trade name) (0.3%), UDP-GalNAc (2 mM), MnCl2 (10 mM), UDP-[^3H]GlcNAc and 5 μl G34 enzyme solution, followed by dilution with H2O to a total volume of […].
as §1, with “2” for “16”
The results thus measured were compared assuming that the radioactivity obtained using Bz-β-GlcNAc as a substrate was set to 100% (see Table 5).

[3] = target: T2, human G34 protein; test: RI assay (divalent ion requirement)
[4] = concentration 2.5 mM, acceptor Bz-β-GlcNAc, HEPES pH 7.4
[5] = concentration 5 mM, acceptor Bz-β-GlcNAc, HEPES pH 7.4
[6] = concentration 10 mM, acceptor Bz-β-GlcNAc, HEPES pH 7.4
[7] = concentration 20 mM, acceptor Bz-β-GlcNAc, HEPES pH 7.4

## CC(=O)N[C@H]1[C@H](OCc2ccccc2)O[C@H](CO)[C@@H](O)[C@@H]1O [Bz-β-GlcNAc]
[1]
  increase in radioactivity: largest increase in radioactivity
  % (radioactivity relative to Bz-β-GlcNAc set to 100%): 100%
[2]
  % (radioactivity relative to Bz-β-GlcNAc set to 100%): 100%

## [Cl-].[Cl-].[Co+2] [Co, CoCl2]
[3]; concentration 2.5 mM
  DPM: 10979.99 DPM
[3]; concentration 5 mM
  DPM: 9503.91 DPM
[3]; concentration 10 mM
  DPM: 10979.99 DPM
[3]; concentration 20 mM
  DPM: 8070.47 DPM
[3]; concentration 40 mM
  DPM: 7854.92 DPM

## [Cu+2] [Cu]
[3]
  Mn-induced enhancement of the activity on addition of Cu: completely eliminated

## O=C(O)CN(CCN(CC(=O)O)CC(=O)O)CC(=O)O [EDTA]
[3]; pH 7.4
  DPM: 149.32 DPM

## CC(=O)N[C@H]1[C@H](OCc2ccccc2)O[C@H](CO)[C@@H](O[C@@H]2O[C@H](CO)[C@@H](O)[C@H](O)[C@H]2NC(C)=O)[C@@H]1O [GlcNAcβ1-4GlcNAc-β-Bz]
[1]
  % (radioactivity relative to Bz-β-GlcNAc set to 100%): 10%
[2]
  % (radioactivity relative to Bz-β-GlcNAc set to 100%): 29%

## [Cl-].[Cl-].[Mg+2] [Mg, MgCl2]
[3]; [4]
  DPM: 4800.03 DPM
[3]; [5]
  DPM: 8692.15 DPM
[3]; [6]
  DPM: 8980.56 DPM
[3]; [7]
  DPM: 6726.32 DPM
[3]; concentration 40 mM, acceptor Bz-β-GlcNAc, HEPES pH 7.4
  DPM: 5592.88 DPM

## [Cl][Mn][Cl] [Mn, MnCl2]
[3]; [4]
  DPM: 7260.09 DPM
[3]; [5]
  DPM: 8270.23 DPM
[3]; [6]
  DPM: 7748.77 DPM
[3]; [7]
  DPM: 7515.86 DPM

## CC(=O)N[C@H]1[C@H](OC[C@H]2O[C@H](Oc3ccc([N+](=O)[O-])cc3)[C@H](NC(C)=O)[C@@H](O[C@@H]3O[C@H](CO)[C@H](O)[C@H](O)[C@H]3O)[C@H]2O)O[C@H](CO)[C@@H](O)[C@@H]1O [core2-pNp, Gal-β1-3-(GlcNAc-β1-6)GalNAc-α-pNp]
[1]
  % (radioactivity relative to Bz-β-GlcNAc set to 100%): 25%
[2]
  increase in radioactivity: largest increase in radioactivity
  % (radioactivity relative to Bz-β-GlcNAc set to 100%): 185%

## CC(=O)NC1C(OC2C(O)C(CO)OC(Oc3ccc([N+](=O)[O-])cc3)C2NC(C)=O)OC(CO)C(O)C1O (stereo not drawn) [core3-pNp, GlcNAc-β1-3-GalNAc-α-pNp]
[1]
  % (radioactivity relative to Bz-β-GlcNAc set to 100%): 14%
[2]
  % (radioactivity relative to Bz-β-GlcNAc set to 100%): 8%

## CC(=O)N[C@H]1[C@@H](Oc2ccc([N+](=O)[O-])cc2)O[C@H](CO[C@@H]2O[C@H](CO)[C@@H](O)[C@H](O)[C@H]2NC(C)=O)[C@H](O)[C@@H]1O [core6-pNp, GlcNAc-β1-6-GalNAc-α-pNp]
[1]
  % (radioactivity relative to Bz-β-GlcNAc set to 100%): 18%
[2]
  % (radioactivity relative to Bz-β-GlcNAc set to 100%): 19%

## O=[N+]([O-])c1ccc(O[C@@H]2O[C@H](CO)[C@@H](O)[C@H](O)[C@H]2O)cc1 [pNp-β-Glc]
[1]
  % (radioactivity relative to Bz-β-GlcNAc set to 100%): 12%
